According to ChEMBL document CHEMBL3871305, “Imidazopyridyl compounds as aldosterone synthase inhibitors” (Bioorg Med Chem Lett, 2017):

How the values were obtained:
in vitro [1] = conditions: human, liver microsomes
in vitro [2] = conditions: rhesus monkey, liver microsomes
in vitro [3] = conditions: rat, liver microsomes
[4] = Dose normalized AUC in Wistar Han rat at 2 mg/kg, po; assay type: ADME, organism-based; conditions: in vivo
[5] = Half life in Wistar Han rat at 1 mg/kg, iv or 2 mg/kg, po; assay type: ADME, organism-based; conditions: in vivo
[6] = Plasma clearance in Wistar Han rat at 1 mg/kg, iv or 2 mg/kg, po; assay type: ADME, organism-based
[7] = Oral bioavailability in Wistar Han rat at 2 mg/kg; assay type: ADME, organism-based; conditions: in vivo
[8] = MRT in Wistar Han rat at 1 mg/kg, iv or 2 mg/kg, po; assay type: ADME, organism-based; conditions: in vivo
[9] = Volume of distribution at steady state in Wistar Han rat at 1 mg/kg, iv or 2 mg/kg, po; assay type: ADME, organism-based; conditions: in vivo, read-out: Vdss
[10] = Cmax in Wistar Han rat at 1 mg/kg, iv or 2 mg/kg, po; assay type: ADME, organism-based; conditions: in vivo

remaining at 0.5 h, 1 µM (in vitro [1])	remaining at 0.5 h, 1 µM (in vitro [2])	remaining at 0.5 h, 1 µM (in vitro [3])	AUC/dose [4]	half-life [5]	clearance [6]	bioavailability [7]	MRT [8]	Vd [9]	Cmax [10]	Structure (SMILES)
96%	31%	33%	–	–	–	–	–	–	–	C[C@@](O)(c1cncc(-c2nc3ccc(F)cn3c2C2CC2)c1)C(F)(F)F
93%	87%	80%	–	–	–	–	–	–	–	Fc1cncc(-c2nc3cc(F)c(Cl)cn3c2C2CC2)c1
88%	31%	38%	0.92 µM·kg·h/mg	36.6 min	23 mL/min/kg	47%	34.8 min	0.82 L/kg	700 nM	C[C@](O)(c1cncc(-c2nc3ccc(F)cn3c2C2CC2)c1)C(F)(F)F

Structure (SMILES)	remaining at 0.5 h, 1 µM (in vitro [1])	remaining at 0.5 h, 1 µM (in vitro [2])	remaining at 0.5 h, 1 µM (in vitro [3])	AUC/dose [4]	half-life [5]	clearance [6]	bioavailability [7]	MRT [8]	Vd [9]	Cmax [10]
CCc1c(F)cncc1-c1nc2ccc(F)cn2c1C1CC1	37%	0%	2%	–	–	–	–	–	–	–
Fc1cncc(-c2nc3ccc(F)cn3c2C2CC2)c1	93%	29%	70%	–	–	–	–	–	–	–
